Test results as given in patent US20130303377A1, “USE OF SINGLE AMINO ACIDS AT LOW CONCENTRATIONS FOR INFLUENCING THE LIFE PROCESSES OF CROPS” (GLOBACHEM, priority 2010, published 2013).

Assays:
[1] = tested on: plants; settings: 500 ppm of glutamic acid; EP 1124419; cited from earlier work
[2] = tested on: plants; settings: only glutamic acid; WO 00/25582; cited from earlier work
[3] = tested on: wheat seedlings; test: Growth inhibition with wheat; assay type: in vivo; settings: for Growth increase (cm): one treatment; for Growth increase (cm) / % wrt control: after 10 days; for % wrt control: growth increase
Method: (§1) This experiment was performed in four repetitions on wheat seedlings. Per repetition six seedlings were sown in a jar and monitored. When the seedlings were about 15 cm high, they were treated once with the following treatments, and after 10 days the growth increase was measured. The dose is given in g/ha whereby the conversion from the concentration was done with a use of 300 l/ha.

[4] = tested on: plants; test: Strength of the response to one single amino acid as a function of dosage; assay type: in vivo; settings: compared to the intermediate range of 5-15 g/ha
Text: The location of the peaks of the pattern, i.e. at which concentrations the strongest effects could be recorded, and the location of the valley between two peaks, i.e. the range wherein the response was again a little less, appeared however to depend on the choice of the amino acid and of the life process which one wishes to influence.

[5] = tested on: barley seedlings; test: Growth inhibition with barley; assay type: in vivo; settings: 250 g/ha, after 8 days
Method: as §1, with “on barley” for “on wheat”, “Per repetition,” for “Per repetition”, “after 8” for “after 10”, “done at” for “done with”, “300 I/ha.” for “300 l/ha.”

[6] = tested on: mature apple trees of the variety Jonagold (mutant King); test: Improvement of the coloring with apple, Example 1 (glutamine sprayed before picking); assay type: in vivo; settings: for kg 1st picking: colored fruits; for Fruit weight: average over the total harvest
Method: This experiment was performed on mature apple trees of the variety Jonagold (mutant King). The sprayings were performed with an atomizer at 300 liter of water/ha. The spray liquid used contained in the first test 300 ppm wt of glutamine and in the second test with a multiple treatment each time 150 ppm wt glutamine. The spray liquid further contained surfactants and a UV filter.
apples of the trees in the test field were harvested in 3 times. Glutamine was used as active substance, in a first test 2 weeks before the expected first picking date, and in the second test first 2 weeks and then again 1 week before the expected harvest date. The dosages used are shown below. At harvest, the total yield, the kilos colored fruits which could be harvested in the first picking and the average fruit weight over the total harvest (in grams per apple fruit) were determined. The results are shown in Table 1, and compared with a control without treatment.

[7] = tested on: Jonagold; test: Improvement of the coloring with apple, Example 2; assay type: in vivo
Method: In an experiment similar to Example 1, glutamine was used 2 times on Jonagold, the first time 14 days before the picking and then a few days before the picking. The dosage of the treatment was this time 2 times 15 g/ha (each time with a concentration of 50 ppm wt in an atomisation of each time 300 liter of water per hectare). The % first picking was determined and is shown in Table 2, in comparison with a control test without treatment.

[8] = tested on: mature apple trees of the variety Jonagold, Jonagored mutant; test: Increase of both the yield and the coloring with apple, Example 3; assay type: in vivo
Method: This experiment was performed on mature apple trees of the variety Jonagold, Jonagored mutant. Unlike the two previous trials, the focus here is primarily on increasing the yield. To achieve this, the treatments have to be started much earlier in the season. The dose is hereby lower than in the two previous applications because the goal is here fruit set and growth inhibition, instead of coloring. One could suffice with two treatments, at the start of the growing season, but several applications over the entire growing season gives a more certain result. The applications in this test were started around the end of flowering and were repeated every 7 to 14 days, depending on the weather conditions. There were in total 7 treatments, more precisely on April 24, May 7, May 14, May 20, June 9, June 16 and June 24. The sprayings were performed with an atomiser.
Glutamine, each time at a concentration of 50 ppm wt in 300 liter water/ha, and thus a dose of 15 g/ha, was applied both separately and in combination with S-abscisic acid (ABA). In the combination test, ABA was administered at the first 2 sprayings of the season, and always at a concentration of 3.3 ppm in 300 l water/ha spraying liquid, which corresponds to a dosage of 1.0 g/ha of ABA. At the end of the season, the extension of the shoots was measured and the number of fruits per tree determined. Shortly after the end of the sprayings, on June 25, the average fruit diameter was also determined.

[9] = tested on: Jonagored; test: Improvement of the coloring with apple, Example 4; assay type: in vivo; settings: glutamine 2.5 g/ha, 4 days before the pick
Text: In this experiment, glutamine was applied 4 days before the pick on a plot of Jonagored, and in a concentration of 8.3 ppm wt in 300 l/ha, which is equivalent to a dose of 2.5 g/ha of glutamine. In table 4 below the % of first picking is shown.

[10] = glutamine 2 × 45 g/ha, 2 weeks and 1 week before expected harvest date
[11] = glutamine 90 g/ha once, 2 weeks before expected first picking

## N[C@@H](CCC(=O)O)C(=O)O [glutamic acid]
[1]
  Effect on productivity of plants: only a small effect
[2]
  Yield of plants versus control test: did not yield any significant improvement

## N[C@@H](Cc1c[nH]cn1)C(=O)O [Histidine, histidine]
[3]; 2 g/ha
  Growth increase (cm): 10.0 cm
  % wrt control: 92%
[3]; 100 g/ha
  Growth increase (cm): 10.2 cm
  % wrt control: 94%
[3]; further experiments with only histidine, about 10 g/ha
  Strength of the growth inhibitory response: less than in the tests with the lower (2 g/ha) and higher (100 g/ha) dosages
[4]
  Strength of the response as a function of dosage: higher response in the range of 0.5-5 g/ha and in a range of 15-250 g/ha

## CCOC(=O)C1CC(=O)C(=C(O)C2CC2)C(=O)C1 (stereo not drawn) [Trinexapac-ethyl, trinexapac-ethyl, reference compound]
[3]; 250 g/ha
  Growth increase (cm): 7.8 cm
  % wrt control: 72%

## CC(C)(C)C(O)(CCc1ccc(Cl)cc1)Cn1cncn1 (stereo not drawn) [Tebuconazole, tebuconazole]
[5]; one treatment
  Growth increase (cm): 3.2 cm
[5]; growth increase
  % wrt control: 45%

## NC(=O)CC[C@H](N)C(=O)O [Glutamine, glutamine]
[6]; dual treatment (2 × 45 g/ha)
  Difference of first picking versus control: 3 kg
  Difference of first picking versus control (% of total harvest): 10%
[6]; [10]
  1st picking in % of the total harvest: 46%
  kg (total harvest): 39 kg
  kg 1st picking: 18 kg
[6]; glutamine 2 × 45 g/ha
  Fruit weight: 257 g
[6]; [11]
  1st picking in % of the total harvest: 41%
  kg (total harvest): 39 kg
  kg 1st picking: 16 kg
[6]; glutamine 90 g/ha once
  Fruit weight: 248 g
[6]; single treatment (90 g/ha)
  Increase of first picking versus control: 1 kg
  Increase of first picking versus control (% of total harvest): 5%
[7]; double treatment of glutamine, versus control
  Increase in the first picking, absolute percentage with respect to weight of total harvest: around 10%
[7]; extrapolated at a Jonagold yield of 60 tons/ha
  Increase of the first-picking portion of the harvest: at least 6 tons/ha
[7]; glutamine 2 × 15 g/ha, 14 days and a few days before the picking
  % 1st picking: 40%
[8]; end of season, glutamine 15 g/ha, 7 treatments
  Average Shoot length (cm): 25.6 cm
[8]; glutamine 15 g/ha, 7 treatments
  Fruit diameter (mm) on June 25: 43.7 mm
[8]; glutamine alone, 15 g/ha, 7 treatments
  Increase of fruits per tree versus control: 14 fruits per tree
[8]; glutamine alone, extrapolated at 1714 trees/ha and five apples per kilo
  Increased yield: ~5000 kg/ha
[8]; per tree, glutamine 15 g/ha, 7 treatments from end of flowering
  Number of fruits: 127
[9]
  % 1st picking: 55.8%
